Source: EP0341213A2, “5-Aryl-substituted-2,3-dihydro-imidazo [1,2-a]furo[3,2-c]- or thieno[2,3-c]pyridines” (SANDOZ AG, priority 1988, dated 1989)

How the values were obtained:
[1] = system: PAF-mediated extravasation; assay: PAF-induced Extravasation test (test C), measured as a function of hemoconcentration; format: in vivo; conditions: po
Source text: Furthermore, the compounds are indicated for use as inhibitors of PAF-mediated extravasation (the extrusion of plasma from the lumen of the blood vessels into the vessel wall and surrounding tissues) measured as a function of hemoconcentration according to the PAF-induced Extravasation test (test C) as described in WO 88/587. From the values obtained an EDso is generated.

[2] = biological target: T1, platelet activating factor (PAF) receptor (Homo sapiens, UniProt P25105); assay: Human Platelet PAF Receptor Assay test (test A): inhibition of specific binding of [3H]-PAF to platelets
T1 construct: endogenous in cells; host or cells: human platelets
T1 sequence (P25105 whole entry): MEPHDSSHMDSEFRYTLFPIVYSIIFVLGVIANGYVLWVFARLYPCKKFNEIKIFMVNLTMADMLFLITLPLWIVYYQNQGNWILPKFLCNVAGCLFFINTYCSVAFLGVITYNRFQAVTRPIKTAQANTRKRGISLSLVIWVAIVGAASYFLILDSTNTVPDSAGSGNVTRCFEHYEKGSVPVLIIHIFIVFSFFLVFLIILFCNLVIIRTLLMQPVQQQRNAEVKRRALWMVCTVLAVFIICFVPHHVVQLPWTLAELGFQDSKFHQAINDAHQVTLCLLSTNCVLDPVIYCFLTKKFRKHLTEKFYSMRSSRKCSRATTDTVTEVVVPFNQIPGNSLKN
Source text: The compounds of formula I in free base form or in pharmaceutically acceptable acid addition salt form, hereinafter referred to as "the compounds", are indicated for use as platelet activating factor (PAF) receptor antagonists, as indicated by their ability to inhibit specific binding of [^3H)-PAF to platelets according to the Human Platelet PAF Receptor Assay test (test A) as described in WO 88/587.

[3] = system: PAF-mediated bronchoconstriction; assay: PAF-induced Pulmonary Inflation Pressure (PIP) Increase test (test B); format: in vivo; conditions: po
Experimental: Moreover, in view of their activity as PAF receptor antagonists, the compounds are indicated for use as inhibitors of PAF-mediated bronchoconstriction, which property is evaluated by the PAF-induced Pulmonary Inflation Pressure (PIP) Increase test (test B) as described in WO 88/587, to generate an EDso (dose needed to effect a 50°/o response).

Compound	ED50 [1] [mg/kg]	IC50 [2] [nM]	ED50 ([3]; dose needed to effect a 50% response, read-out: EDso) [mg/kg]	inhibition at 10 mg/kg ([1]; at 10 mg/kg p.o.) [%]	inhibition at 10 mg/kg ([3]; at 10 mg/kg p.o.) [%]
COc1cc(CCc2ccc(C3=Cc4ccsc4C4=NCCN34)cc2)cc(OC)c1OC [Example 1, 2,3-Dihydro-5-[4-[2-(3,4,5-trimethoxyphenyl)ethyl]phenyl]imidazo[1,2-a]thieno[2,3-c]pyridine]	1	100	1	–	–
COc1cc(CCc2ccc(C3=Cc4oc(C)cc4C4=NCCN34)cc2)cc(OC)c1OC [Example 2, 2,3-Dihydro-8-methyl-5-[4-[2-(3,4,5-trimethoxyphenyl)ethyl]phenyl]imidazo[1,2-a]furo[3,2-c]pyridine]	–	70	–	59	38
